The IC50 is the midpoint of a concentration-inhibition curve. For orientation: EC50 means the concentration needed to bring the measured effect to its halfway point. Read a high EC50 as lower potency in that assay.

IC50, selectivity ratio and EC50 data for 5 compounds are collected here from ChEMBL document CHEMBL1127210, “Synthesis of 5-glycosylamino pyrimidines. A new class of compounds with potential anti-aids activity” (Bioorg Med Chem Lett, 1993).

In series [1] the test system is CCRF-CEM. Kind of series: (§1) In vitro inhibitory activity against HIV infected T4 lymphocytes (CEM cell line). The series is classed as functional, cell-based, Homo sapiens.
The nature of series [2]: Therapeutic index (IC50/EC50) was determined.
In series [3] the test system is CCRF-CEM. The description is as §1. The class given is functional, cell-based. As to conditions: Homo sapiens.
The subject of series [4] is CCRF-CEM. The experiment in a line: Tested for in vitro anti HIV activity against T4 lymphocytes (CEM cell lines) and effective concentration was reported. As to conditions: Homo sapiens. The class given is functional, cell-based.

A value given as a limit tells only on which side of the number the result lay.

In turn, `COc1nc2nc(C(O)C(O)CO)cnc2c(=O)n1C` (stereo in doubt; 11) gave an IC50 in series [1] (ccrf-cem) above 220 µM.
`COc1nc(N)c(NC2O[C@H](CO)[C@@H](O)[C@H]2O)c(=O)n1C` (some centres undefined): the IC50 in series [1] (Homo sapiens, CCRF-CEM) is above 830 µM. In addition, in series [2], the selectivity ratio is above 13. The compound further yielded an EC50 in series [3] of 64 µM.
Regarding `COc1nc(N[C@H]2OC[C@@H](O)[C@H](O)[C@H]2O)c(NC2O[C@@H](CO)[C@@H](O)[C@@H]2O)c(=O)n1C` (some centres undefined), the IC50 in series [1] (Homo sapiens, CCRF-CEM) was above 580 µM.
In turn, `COc1nc2nc(C(O)C(O)CO)cnc2c(=O)n1C` (stereo in doubt; 10) gave an IC50 in series [1] (ccrf-cem) above 890 µM.
`COc1nc(N)c(NC2O[C@H](CO)[C@H](O)[C@H]2O)c(=O)n1C` (some centres undefined): in series [4], the midpoint of the response, the EC50, lay at 140 µM. The same compound showed an IC50 in series [1] (Homo sapiens, CCRF-CEM) of 220 µM. The selectivity ratio in series [2] is above 1.6.
